Measured values from ChEMBL document CHEMBL4680353, “Synthesis, anticancer activity and molecular docking studies of N-deacetylthiocolchicine and 4-iodo-N-deacetylthiocolchicine derivatives” (Bioorg Med Chem, 2021).
Active and inactive are the calls of the source. The rule behind the calls is not given here.

Experiments:
MCF7 = test: Antiproliferative activity against human MCF-7 cells incubated for 72 hrs by SRB assay; details: MCF7, 72 h
BALB/3T3 = test: Antiproliferative activity against mouse BALB/3T3 cells incubated for 72 hrs by SRB assay; assay type: ADME, cell-based; details: BALB/3T3, 72 h
A549 = test: Antiproliferative activity against human A549 cells incubated for 72 hrs by SRB assay; assay type: functional, cell-based; details: A549, 72 h
LoVo = test: Antiproliferative activity against human LoVo cells incubated for 72 hrs by SRB assay; assay type: functional, cell-based
[1] = Resistance index, ratio of IC50 for antiproliferative activity against human Lovo/DX cells to IC50 for antiproliferative activity against human LoVo cells; assay type: functional
[2] = Antiproliferative activity against human ALL5 cells incubated for 120 hrs followed by MTT addition further incubated for 48 hrs; assay type: functional, cell-based
cells = assay type: functional, cell-based; details: Homo sapiens, LoVo/DX, 72 h
ALL5 [3] = test: Induction of apoptosis in human ALL-5 cells assessed as increase in PARP cleavage at 45 nM incubated for 48 hrs by Western blot analysis relative to control; assay type: functional, cell-based
ALL5 [4] = test: Cell cycle arrest in human ALL-5 cells assessed as accumulation at sub-G1 phase after 24 hrs at 5 times of IC50 by propidium iodide staining-based flow cytometric analysis relative to control; assay type: functional
ALL5 [5] = test: Induction of apoptosis in human ALL-5 cells assessed as increase in PARP cleavage at 0.2 uM incubated for 24 hrs by Western blot analysis relative to control
ALL5 [6] = test: Induction of apoptosis in human ALL-5 cells assessed as increase in PARP cleavage at 43 nM incubated for 48 hrs by Western blot analysis relative to control; assay type: functional, cell-based
ALL5 [7] = test: Induction of apoptosis in human ALL-5 cells assessed as increase in PARP cleavage at 23 nM incubated for 48 hrs by Western blot analysis relative to control; assay type: functional, cell-based

Compound	IC50 (MCF7) [nM]	IC50 (BALB/3T3) [nM]	IC50 (A549) [nM]	IC50 (LoVo) [nM]	Ratio IC50 [1]	IC50 [2] [nM]	IC50 (cells) [nM]	Activity (ALL5 [3])	Activity (ALL5 [4])	Activity (ALL5 [5])	Activity (ALL5 [6])	Activity (ALL5 [7])
COc1c(I)c2c(c(OC)c1OC)-c1ccc(OC)c(=O)cc1[C@@H](NC(C)=O)CC2	97.7	135	93.9	10.2	278	15.5	2780	–	–	–	–	–
COc1c(I)c2c(c(OC)c1OC)-c1ccc(SC)c(=O)cc1[C@@H](NC(=O)CCCCl)CC2	89.4	87.8	82.8	39.2	13.5	47.5	529	–	–	–	–	–
CCC(=O)N[C@H]1CCc2c(I)c(OC)c(OC)c(OC)c2-c2ccc(SC)c(=O)cc21	10.8	39.6	11.4	7.2	23.3	9	168	Active	–	–	–	–
COc1cc2c(c(OC)c1OC)-c1ccc(SC)c(=O)cc1[C@@H](NC(=O)CCCCl)CC2	11.9	20.2	13.3	8.4	12.2	5.9	102	–	Active	–	–	–
COc1cc2c(c(OC)c1OC)-c1ccc(SC)c(=O)cc1[C@@H](NC(=O)c1ccccc1)CC2	11.2	21.6	11.2	5.6	10.4	5.7	57.9	–	–	–	–	–
COCC(=O)N[C@H]1CCc2cc(OC)c(OC)c(OC)c2-c2ccc(SC)c(=O)cc21	12.7	12	13.5	8.2	16	8.5	132	–	–	–	–	–
COc1cc2c(c(OC)c1OC)-c1ccc(SC)c(=O)cc1[C@@H](NC(=O)C(C)C)CC2	13.5	69.9	15.8	9	19.3	5.5	174	–	Active	–	–	–
COc1c(I)c2c(c(OC)c1OC)-c1ccc(SC)c(=O)cc1[C@@H](NC(C)=O)CC2	–	–	–	7.4	91.7	8.7	–	–	Active	–	–	–
COc1c(I)c2c(c(OC)c1OC)-c1ccc(SC)c(=O)cc1[C@@H](N)CC2	1700	1420	866	126	6.7	135	844	–	–	–	–	–
COc1cccc2c1C(=O)c1c(O)c3c(c(O)c1C2=O)C[C@@](O)(C(=O)CO)C[C@@H]3O[C@H]1C[C@H](N)[C@H](O)[C@H](C)O1 [DOXORUBICIN]	–	–	258	–	–	–	4750	–	–	Active	–	–
CCCCCCCCCC(=O)N[C@H]1CCc2c(I)c(OC)c(OC)c(OC)c2-c2ccc(SC)c(=O)cc21	846	305	833	568	6.8	615	3870	–	–	–	–	–
CCCCCCCCCC(=O)N[C@H]1CCc2cc(OC)c(OC)c(OC)c2-c2ccc(SC)c(=O)cc21	66.3	87.2	13.3	7.6	11.2	27.3	84.6	–	–	–	–	–
COc1c(I)c2c(c(OC)c1OC)-c1ccc(SC)c(=O)cc1[C@@H](NC(=O)C(C)C)CC2	44.5	69.7	62.6	7	13	19.9	91.3	–	–	–	–	–
COc1cc2c(c(OC)c1OC)-c1ccc(OC)c(=O)cc1[C@@H](NC(C)=O)CC2 [COLCHICINE]	–	106	–	–	–	8.6	–	–	–	–	Active	–
CCN(CC)C(=O)N[C@H]1CCc2c(I)c(OC)c(OC)c(OC)c2-c2ccc(SC)c(=O)cc21	94.7	107	81.3	64.6	12.3	81.9	794	–	–	–	–	–
COc1c(I)c2c(c(OC)c1OC)-c1ccc(SC)c(=O)cc1[C@@H](NC(=O)c1ccccc1)CC2	47.5	76.2	13.3	7.2	10.2	25.4	72.9	–	–	–	–	–
CCC(=O)N[C@H]1CCc2cc(OC)c(OC)c(OC)c2-c2ccc(SC)c(=O)cc21	12.4	17.9	13.2	8.5	19.1	4.6	163	–	–	–	–	Active
COCC(=O)N[C@H]1CCc2c(I)c(OC)c(OC)c(OC)c2-c2ccc(SC)c(=O)cc21	10.5	51.2	10.5	7	13.2	15	92.2	–	–	–	–	–
CCN(CC)C(=O)N[C@H]1CCc2cc(OC)c(OC)c(OC)c2-c2ccc(SC)c(=O)cc21	113	88.2	133	69.1	16	17.4	1100	–	–	–	–	–
